# Experimental data from publication PMC10707071, “Characterization of the Novel Leaderless Bacteriocin, Bawcin, from Bacillus wiedmannii” (International Journal of Molecular Sciences, 2023).
# No end group written: not given here.
# Assays:
# trypsin = experiment: Protease sensitivity testing (residual activity by spot-on-lawn assay); assay type: in vitro ADME; conditions: 1 mg/mL trypsin in 50 mM phosphate buffer pH 8, 1 h at 37 °C, bawcin at 1×, 2×, 4× the MIC, spot-on-lawn against M. luteus, triplicate
# Protocol: (§1) The MIC of bawcin against each bacterial strain was determined using the spot-on-lawn assay as described previously with modifications. A Mueller Hinton (MH) double-agar plate was prepared by pouring 5 mL of 0.75% MH agar inoculated with 50 µL of 0.10 OD625 bacterial suspension onto 20 mL of dried 1.5% MH agar. Bawcin diluted with sterile water to 128, 64, 32, 16, 8, 4, 2, and 1 µM was spotted in 10 µL aliquots onto the top agar layer, along with 10 µL of an antibiotic positive control (ampicillin or kanamycin) and sterile water negative control. Plates were incubated at 37 °C for 16–20 h and the MIC was identified as the lowest concentration in which a zone of inhibition was observed, where partial bacterial growth within the zone of inhibition was considered HR. Assays were performed in triplicate.
# (§2) Protease stability testing was evaluated as described previously with modification. Papain (Scholar Chemistry, Rochester, NY, USA), pepsin (Northwest Scientific, Billings, MT, USA), trypsin (Sigma-Aldrich, Burlington, MA, USA), alpha-chymotrypsin (Worthington, Lakewood, NJ, USA), and proteinase K (Fisher Scientific, Ottawa, ON, Canada) were prepared to a final concentration of 1 mg/mL in 50 mM phosphate buffer adjusted to pH 2 (pepsin), 6 (papain), and 8 (proteinase K, trypsin, alpha-chymotrypsin). Bawcin was combined with each protease to final concentrations of 1×, 2×, and 4× the MIC. Bawcin’s residual antimicrobial activity against M. luteus was determined via spot-on-lawn assay as described above. The following samples were spotted for each assay: (1) protease combined with bawcin at each concentration, bawcin alone at each concentration, buffer alone, protease in buffer alone, ampicillin (positive control), and sterile water (negative control), where all solutions were incubated for 1 h at 37 °C prior to spotting except ampicillin and sterile water. Assays were performed in triplicate.
# proteinase K = molecular target: T1, proteinase K (Parengyodontium album, UniProt P06873); experiment: as above; assay type: in vitro ADME; conditions: 1 mg/mL proteinase K in 50 mM phosphate buffer pH 8, 1 h at 37 °C, bawcin at 1×, 2×, 4× the MIC, spot-on-lawn against M. luteus, triplicate
# T1 construct: purchased Fisher Scientific
# T1 sequence (P06873 106-384): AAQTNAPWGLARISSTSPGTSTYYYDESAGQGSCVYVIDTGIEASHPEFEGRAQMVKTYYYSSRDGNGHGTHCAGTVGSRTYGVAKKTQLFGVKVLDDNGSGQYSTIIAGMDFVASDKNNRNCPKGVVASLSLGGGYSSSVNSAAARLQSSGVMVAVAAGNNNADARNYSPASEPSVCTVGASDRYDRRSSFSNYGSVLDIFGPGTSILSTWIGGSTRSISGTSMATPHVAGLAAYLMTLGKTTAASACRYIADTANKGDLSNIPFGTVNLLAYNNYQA
# Protocol: as §1, §2
# alpha-chymotrypsin = molecular target: T2, alpha-chymotrypsin (Bos taurus, UniProt P00766); experiment: as above; assay type: in vitro ADME; conditions: 1 mg/mL alpha-chymotrypsin in 50 mM phosphate buffer pH 8, 1 h at 37 °C, bawcin at 1×, 2×, 4× the MIC, spot-on-lawn against M. luteus, triplicate
# T2 construct: purchased Worthington
# Protocol: as §1, §2
# pepsin = molecular target: T3, pepsin (Sus scrofa, UniProt P00791); experiment: as above; assay type: in vitro ADME; conditions: 1 mg/mL pepsin in 50 mM phosphate buffer pH 2, 1 h at 37 °C, bawcin at 1×, 4× the MIC (8, 16, 32 µM), spot-on-lawn against M. luteus, triplicate
# T3 construct: purchased Northwest Scientific
# T3 sequence (P00791 60-385): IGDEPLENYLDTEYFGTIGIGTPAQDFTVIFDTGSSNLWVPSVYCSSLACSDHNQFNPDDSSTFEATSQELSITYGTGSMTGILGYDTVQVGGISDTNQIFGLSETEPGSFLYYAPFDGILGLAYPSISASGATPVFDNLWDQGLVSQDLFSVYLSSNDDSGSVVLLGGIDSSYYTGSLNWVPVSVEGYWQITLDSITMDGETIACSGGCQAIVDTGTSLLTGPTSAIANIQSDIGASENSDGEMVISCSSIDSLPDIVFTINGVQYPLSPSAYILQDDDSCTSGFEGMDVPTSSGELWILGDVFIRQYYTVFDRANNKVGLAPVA
# Protocol: as §1, §2
# papain = molecular target: T4, papain (Carica papaya, UniProt P00784); experiment: as above; assay type: in vitro ADME; conditions: spot-on-lawn against M. luteus, triplicate
# T4 construct: purchased Scholar Chemistry
# T4 sequence (P00784 134-345): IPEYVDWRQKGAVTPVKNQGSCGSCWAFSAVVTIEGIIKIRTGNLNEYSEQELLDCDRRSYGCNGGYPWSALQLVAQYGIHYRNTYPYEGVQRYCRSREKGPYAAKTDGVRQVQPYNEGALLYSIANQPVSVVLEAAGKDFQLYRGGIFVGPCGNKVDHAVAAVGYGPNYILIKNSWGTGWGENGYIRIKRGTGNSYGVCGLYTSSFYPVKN
# Protocol: as §1, §2
# [1] = system: Bacillus cereus (Ward’s 85W 0200); assay type: cell-based
# Protocol: as §1
# [2] = system: Lactobacillus casei (Ward’s 85W 1682); assay type: cell-based
# Protocol: as §1
# [3] = system: Micrococcus luteus (Ward’s 85W 0966); assay type: cell-based
# Protocol: as §1
# [4] = system: Lactobacillus delbruekii ssp. bulgaricus (VWR 470179-126); assay type: cell-based
# Protocol: as §1
# [5] = system: Lactococcus lactis ssp. lactis (Ward’s 85W 1774); assay type: cell-based
# Protocol: as §1
# [6] = system: Enterococcus faecalis (Ward’s 85W 1100); assay type: cell-based
# Protocol: as §1
# [7] = system: Bacillus subtilis (Ward’s 85W 1650); assay type: cell-based
# Protocol: as §1
# [8] = system: Listeria monocytogenes ATCC 19115; assay type: cell-based
# Protocol: as §1
# [9] = system: Staphylococcus aureus ATCC 6538; assay type: cell-based
# Protocol: as §1
sequence,measurement,setting,value
MLSFAKLVARLSASKAKWAWNNKGKVVEWIKNGATFEWISNKIDQMMG [bawcin],Residual antimicrobial activity in the presence of trypsin,trypsin,lost antimicrobial activity at all concentrations tested
same,Residual antimicrobial activity in the presence of proteinase K,proteinase K,lost antimicrobial activity at all concentrations tested
same,Residual antimicrobial activity in the presence of alpha-chymotrypsin,alpha-chymotrypsin,lost antimicrobial activity at all concentrations tested
same,Residual antimicrobial activity when combined with pepsin,pepsin,only at 4× the MIC (with HR)
same,Residual antimicrobial activity when combined with papain,"papain; 1 mg/mL papain in 50 mM phosphate buffer pH 6, 1 h at 37 °C, bawcin at 1×, 2×, 4× the MIC (8, 16, 32 µM)",retained its antimicrobial activity
same,Lowest bawcin concentration remaining active in combination with papain,"papain; 1 mg/mL papain, pH 6, 1 h at 37 °C, 32, 16, 8 µM tested",8 µM
same,MIC,[1],16 µM
same,MIC,[2],8 µM
same,MIC,[3],4 µM
same,MIC,[4],8 µM
same,MIC,[5],4 µM
same,MIC,[6],32 µM
same,MIC,[7],8 µM
same,MIC,[8],8 µM
same,MIC,[9],16 µM
